Assay results from patent US10155740B2 (F.I.S.—FABBRICA ITALIANA SINTETICI S.P.A., priority 2016, dated 2018).
Entries after “also recorded” stand apart in the source; their conditions may differ. Read-outs that look alike come from different tables or passages of the source.

Columns and labels:
[1] = Preliminary solubility study of Pomalidomide Form O in a range of solvents; type: physicochemical; settings: for solubility: thermodynamic from solid
Procedure: A preliminary study of the solubility of Pomalidomide Form O was performed in a range of solvents and under the operating conditions given in the following table 5: […]

[2] = Moisture stability test of Form M (RH 100%, XRPD); type: physicochemical; settings: 100% relative humidity, one night, room temperature
Procedure: Pomalidomide Form M was subjected to a moisture stability test. 100 mg of Pomalidomide Form M, prepared as described above, were maintained for one night at 100% relative humidity (RH 100%), at room temperature and analyzed by XRPD.

[3] = Relative stability of crystal forms from preparation tests by suspension in solvent; type: physicochemical; settings: suspension in solvent (slurrying) tests
Procedure: The crystal form of Pomalidomide, named Form M, can be prepared by suspension of the form O under stirring for a night in isopropanol (slurrying) after seeding with Form B.
An alternative method for the preparation of Form M prescribes suspending the form O under stirring for four days (slurrying) in dioxane and seeding with Form A, as described in the present experimental part.
1 g of Pomalidomide Form O prepared as in Example 1, was suspended in 20 ml of isopropanol, seeded with crystals of Pomalidomide Form B and stirred overnight at room temperature, giving after filtration and drying, the new Pomalidomide Form M as crystalline powder.

[4] = pH 1.2, 4.5 and 6.8, cited from earlier work
[5] = 37° C., cited from earlier work
[6] = cited from earlier work

## Nc1cccc2c1C(=O)N(C1CCC(=O)NC1=O)C2=O (racemic) [Pomalidomide Form O]
[1]; RT
  solubility in AcOiBu: >80 vol RT;
  solubility in Anisole: >80 vol. RT;
  solubility in CHCl3: >80 vol. RT;
  solubility in DMF: 26 vol.
  solubility in DMSO: 6 vol.
  solubility in Dioxane: >80 vol. RT
  solubility in Et2O: >80 vol. RT;
  solubility in MIBK: >80 vol. RT;
  solubility in MeNO2: >80 vol. RT;
  solubility in NMP: 8 vol.
[1]; ethanol, organic solvent or mixture, RT, read-out: solubility in EtOH
  solubility: < 1000 µg/mL
[1]; reflux
  solubility in AcOiBu: >80 vol.
  solubility in Anisole: >80 vol.
  solubility in CHCl3: >80 vol.
  solubility in Dioxane: <80 vol.
  solubility in Et2O: >80 vol.
  solubility in MIBK: >80 vol.
  solubility in MeNO2: <80 vol. reflux
[1]; water, RT, read-out: solubility in H2O
  solubility: < 1000 µg/mL

## Nc1cccc2c1C(=O)N(C1CCC(=O)NC1=O)C2=O (stereo not shown) [Pomalidomide Form M]
[2]
  hygroscopicity / water take-up: did not take-up any water; also recorded: non-hygroscopic
[3]
  relative stability of crystal form: higher stability than both Form B and Form O

## Nc1cccc2c1C(=O)N(C1CCC(=O)NC1=O)C2=O (racemic) [Pomalidomide, (R,S)-4-Amino-2-(2,6-dioxo-3-piperidinyl)-isoindol-1,3-dione]
[4]; clinical dose of 4 mg
  solubility of dose in 250 ml of aqueous medium: is not
[4]; dose of 2 mg
  solubility of dose in 250 ml of aqueous medium: soluble
[5]; pH 1.2 (0.05N HCl)
  Pomalidomide solubility after 24 hours: 15.0 µg/mL
[5]; pH 4.5 (0.05M acetato)
  Pomalidomide solubility after 24 hours: 14.6 µg/mL
[5]; pH 6.8 (0.05M fosfato)
  Pomalidomide solubility after 24 hours: 13.2 µg/mL
[6]; absolute ethanol, ethyl acetate, heptane, methanol, 2-propanol, toluene
  solubility in organic solvents: very slightly soluble
[6]; acetone, acetonitrile, methylene chloride, methyl ethyl ketone, THF
  solubility in organic solvents: slightly soluble
